# Measured values reported in patent US10907219B2, “Compositions and methods for controlling cellular function” (STC.UNM, priority 2014, dated 2021).
# “Also recorded” adds a separate entry of the source.
# Columns and labels:
# [1] = tested on: myr-ABI and PYL-eGFP-Tiam1 in CHO cells; test: H2O2-induced ruffle formation (Tiam1 membrane localization); format: cell-based
# Excerpt: To further investigate whether a complex biological process can be triggered by H2O2-induced protein dimerization, we examined the membrane ruffle formation resulting from localized Rho GTPase activation. Tiam1 is a guanine exchange factor for Rac, a member of Rho GTPase. The membrane translocation of Tiam1 activated Rac signaling pathway and induced ruffle formation, which is involved in cell migration and morphogenesis. We constructed an ABA-inducible Tiam1 membrane localization system, which consists of DNA plasmids encoding the membrane-localized ABI (myr-ABI; Liang et al., 2011, Sci. Signal. 4, rs2) and the cytoplasmic eGFP/PYL-fused Tiam1 (PYL-eGFP-Tiam1) (FIG. 2a). CHO cells were transfected with these plasmids for 24 hours and then incubated for one hour without additive, or with 10 μM of ABA, ABA-HP or ABA-HP plus 10 eq of H2O2. The ruffle formation in cells was analyzed by the confocal microscopy.
# Ruffle generation experiment: CHO were seeded in 24-well plates at 50 K/well with coverslip for 24 hours. 0.1 μg PYL-eGFP-Tiam1 and 0.1 μg myr-ABI (FIG. 2a, iii) of DNA plasmid were used for each well, with 30 μL of Opti-MEM (Life Technologies, Carlsbad, Calif.) and 1.8 μL PEI. After incubation at room temperature for 15 min, the mixture was added to the cells and cultured for 24 hours. […]
# [2] = tested on: HEK 293T eGFP reporter cells (VP-PYL and GAL4DBD-ABI); test: H2O2-induced eGFP expression (transcriptional activation); format: cell-based
# Excerpt: To determine if the ABA generated from the H2O2-induced cleavage of ABA-HP is biologically active, we tested whether it could induce downstream biological processes. We first investigated H2O2-induced transcriptional activation using an HEK 293T stable cell line, in which enhanced GFP (eGFP) expression occurs only in the presence of functional ABA. The cell line was created with both the ABA-responsive split transcriptional activator DNA fragment (VP-PYL and GAL4DBD-ABI linked by IRES; Liang et al., 2011, Sci. Signal. 4, rs2) and an inducible eGFP DNA fragment (with 5×UAS) inserted into the genome (FIG. 2a).
# We tested the response of our system to H2O2 at physiologically relevant concentrations under cell culture conditions. The eGFP reporter cells were treated with no drug, or 10 μM of ABA, ABA-HP, or ABA-HP exposed to H2O2 (1, 5 or 10 eq) for five to 24 hours. The expression of eGFP was monitored at specific time points using a fluorescence microscope. […] Alternatively, for cellular experiments, cell culture media can be exchanged regularly with media containing fresh ABA-HP and thus restrict the build-up of esterase-cleaved ABA.
# EGFP expression experiments: HEK 293T (GFP) cells were seeded 24 hours prior to treatment in 24-well plates at 100 K/well. 10 μM ABA-HP was added to the cells 10 minutes prior to the addition of 10 μM ABA and 10, 50, or 100 μM of H2O2. Images were taken for living cells at 5 hours, 7 hours, 10 hours and 24 hours.
# An Axio Observer D1 fluorescent microscope (Carl Zeiss AG, Oberkochen, Germany) outfitted with HBO 100 microscopy illumination system (Carl Zeiss AG, Oberkochen, Germany; GFP: excitation 470/40 and emission 525/50) was used to analyze GFP expression and NES localization. A 20× objective was used to analyze GFP expression. A 63× objective was used for NES localization.
# [3] = Chemical stability of caged ABA in HEPES buffer/DMSO in the dark (HPLC); format: physicochemical; details: 70% HEPES buffer/30% DMSO, 37° C., 24 h
# Procedure: FIG. 26. Chemical stability of ABA-DMNB. ABA-DMNB was incubated in 70% HEPES buffer/30% DMSO at 37° C. for 24 h in the dark. The samples were analyzed by HPLC.
# FIG. 32. Chemical stability of ABA-DEACM. ABA-DEACM was incubated in 70% HEPES buffer/30% DMSO at 37° C. for 24 h in the dark. The samples were analyzed by HPLC and absorbance was monitored at 250 nm.
# HPLC analysis: Reversed-phase HPLC was performed on an ACCLAIM 120 (4.6×100 mm) C18 column (Thermo Fisher Scientific, Waltham, Mass.) with an ULTIMATE 3000 pump system, including a Variable Wavelength Detector 3100, Degasser 1210, and Autosampler SPS 3000 (Thermo Fisher Scientific, Waltham, Mass.). A mixture of water and acetonitrile containing 0.1% TFA was used as the eluent. Absorbance at 250 nm was used to monitor the elution of the molecules. The method used an increase in acetonitrile from 5% to 95% over 15 minutes to elute the molecules at a flow rate of 0.7 mL/min. The peaks for the molecules were integrated by using Chromeleon software (Thermo Fisher Scientific, Waltham, Mass.). The molar absorptivity of both free and caged ABA at 250 nm were measured, which was used to calculate the concentration of each species from the intensity of absorbance at 250 nm. […]
smiles,measurement,setting,value
"CC1=CC(=O)CC(C)(C)C1(O)/C=C/C(C)=C\C(=O)O (stereo not shown) [ABA, abscisic acid, reference compound]",ruffle formation,"[1]; 10 μM, compound alone, CHO cells",showed obvious ruffle formation
same,eGFP expression,"[2]; 10 μM, compound alone, after five hours",eGFP expression could be observed after five hours
CCN(CC)c1ccc2c(COC(=O)/C=C(C)\C=C\[C@@]3(O)C(C)=CC(=O)CC3(C)C)cc(=O)oc2c1 [ABA-DEACM],chemical stability in biological buffer in the dark,[3],no chemical decomposition; also recorded: stable chemically
COc1cc(COC(=O)/C=C(C)\C=C\[C@@]2(O)C(C)=CC(=O)CC2(C)C)c([N+](=O)[O-])cc1OC [ABA-DMNB],chemical stability in biological buffer in the dark,[3],no chemical decomposition; also recorded: stable at 37 °C in biological buffer in the dark for 24 hours
CC1=CC(=O)CC(C)(C)[C@@]1(O)/C=C/C(C)=C\C(=O)OCc1ccc(B2OC(C)(C)C(C)(C)O2)cc1 [ABA-HP],ruffle formation,"[1]; 10 μM plus 10 eq of H2O2, CHO cells",showed obvious ruffle formation
same,eGFP expression,"[2]; 10 μM plus H2O2 (1, 5 or 10 eq), after five hours",eGFP expression could be observed after five hours
same,dependence of eGFP expression on H2O2 level,[2]; 10 μM plus different amounts of H2O2,dose-dependent eGFP expression
same,eGFP expression,"[2]; 10 μM, compound alone, extended incubation 24 hours",eGFP expression was indeed observed
same,eGFP expression,"[2]; 10 μM, compound alone, no H2O2, within 10 hours",not observed within a 10-hour period
same,stability within cells,"[2]; 10 μM, no H2O2, inferred from absent eGFP expression",at least 10 hours
